Data: patent publication US20230302021A1, “COMPOSITIONS AND METHODS FOR TREATING CASTRATION-RESISTANT PROSTATE CANCER” (Purdue Research Foundation, priority 2022, published 2023)

Columns and labels:
22RV1 cells = experiment: Cell proliferation / viability (MTT) assay; format: cell-based; details: for proliferation of 22RV1 cells: ENZ-resistant 22RV1 cells, FIG. 1
Protocol: Cell viability assay: An MTT assay was performed to evaluate the effect of drugs on cell viability. Ten thousand cells per well were plated in a 96-well plate and treated with drugs the following day. The MTT solution (0.5 mg/ml) was then applied to the cells for 1 h at 37° C. with 5% CO2. Precipitated formazan was dissolved in DMSO and quantified at 570 nm using a microplate reader (Beckman-Coulter). Combination index: The data obtained from the MTT assay were used to calculate cell viability and also used to calculate combination index (CI). The Chou-Talalay method was applied to determine the CI using CompuSyn software (Biosoft).

22RV1-derived xenograft = experiment: 22RV1-derived mouse xenograft model; format: in vivo; details: castrated nude mice, daily for 3 weeks; ENZ 25 mg/kg/day oral gavage, AVA 20 mg/kg/day intraperitoneal
Protocol: All procedures were approved by the Purdue Animal Care and Use Committee. Five-week-old male nude mice (Jackson Laboratory) were purchased for the experiment. […] ENZ stock prepared in DMSO was diluted in corn oil for oral gavage and AVA solution was prepared. Once the tumors reached approximately 50-100 mm^3, the mice were randomly divided into four groups for daily drug administration for 3 weeks: (i) vehicle oral gavage (corn oil)+vehicle intraperitoneal injection (2% tween-80 (v/v) and 3.2 mg/mL 2-hydroxypropyl-β-cyclodextrin in PBS); (ii) ENZ alone (25 mg/kg body weight/day) by oral gavage; (iii) AVA alone (20 mg/kg body weight/day) by intraperitoneal injection; (iv) ENZ (25 mg/kg/day)+AVA (20 mg/kg/day). Tumors were monitored every two days with a caliper and tumor volumes were calculated with the formula V=0.5×L×W^2 (where V is volume, L is length, W is the width). At the end of the study, mice were euthanized and tumor tissues were excised and weighted.

SOAT1 = target: T1, SOAT1 (Homo sapiens, UniProt P35610); details: cited from earlier work
T1 sequence (P35610 1-550): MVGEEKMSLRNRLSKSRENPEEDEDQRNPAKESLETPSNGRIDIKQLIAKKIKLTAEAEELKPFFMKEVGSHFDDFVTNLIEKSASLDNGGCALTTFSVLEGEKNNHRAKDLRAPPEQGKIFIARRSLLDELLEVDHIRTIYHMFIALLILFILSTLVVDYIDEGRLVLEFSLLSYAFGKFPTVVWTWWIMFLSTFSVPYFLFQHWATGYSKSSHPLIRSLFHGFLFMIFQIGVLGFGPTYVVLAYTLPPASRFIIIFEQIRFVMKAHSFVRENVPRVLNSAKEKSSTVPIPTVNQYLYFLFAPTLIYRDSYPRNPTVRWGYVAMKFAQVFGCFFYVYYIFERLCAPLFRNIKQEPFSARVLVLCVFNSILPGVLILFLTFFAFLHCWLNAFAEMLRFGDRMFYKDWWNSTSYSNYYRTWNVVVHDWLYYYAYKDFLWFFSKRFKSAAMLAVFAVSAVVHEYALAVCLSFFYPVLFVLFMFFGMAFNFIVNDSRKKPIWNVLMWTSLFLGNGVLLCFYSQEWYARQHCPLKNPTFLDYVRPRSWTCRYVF

AR signaling = experiment: qPCR of genes related to AR signaling in 22RV1 cells; format: cell-based; details: 20 μM ENZ in presence or absence of 4 μM avasimibe, 24 h
[1] = rats, dogs, and humans; cited from earlier work

Row | SMILES | proliferation of 22RV1 cells (22RV1 cells) | proliferation of shRNA-transfected 22RV1 cells (22RV1 cells; shCTRL or shSOAT1 with DMSO or ENZ, FIG. 5B) | tumor growth (appearance, average tumor volume, tumor weight) (22RV1-derived xenograft) | IC50 value for SOAT1 relative to the corresponding IC50 value for SOAT2 (SOAT1; SOAT1 vs SOAT2 selectivity) | AR expression (mRNA) (AR signaling) | AR-V7 expression (mRNA) (AR signaling) | Nkx3.1 expression (mRNA) (AR signaling) | Psa expression (mRNA) (AR signaling) | safety when administered [1] | IC50 (SOAT1) [µM]
1 | CNC(=O)c1ccc(N2C(=S)N(c3ccc(C#N)c(C(F)(F)F)c3)C(=O)C2(C)C)cc1F [ENZ, enzalutamide] | resistant | little effect on the proliferation | did not sufficiently delay the tumor growth | – | – | – | – | – | – | –
2 | CCOC(=O)OC(=O)OCC [pyrocarbonate, diethyl pyrocarbonate] | – | – | – | at least twice or higher | – | – | – | – | – | –
3 | CC(C)c1cc(C(C)C)c(CC(=O)NS(=O)(=O)Oc2c(C(C)C)cccc2C(C)C)c(C(C)C)c1 [AVA, avasimibe] | slightly suppressed cell proliferation | – | did not sufficiently delay the tumor growth | – | did not change | did not change | downregulated | downregulated | considered safe | 24
